Reference: patent US12194024B2, “Pharmaceutical composition of MDM2 inhibitor and use thereof for preventing and/or treating disease” (ASCENTAGE PHARMA (SUZHOU) CO., LTD., priority 2019, dated 2025)

Key:
[1] = tested on: OCI-AML-3; experiment: CellTiter-Glo (CTG) cell proliferation experiment; assay type: cell-based; settings: Homo sapiens, TP53 wt, FLT3 wt, 72 hours, read-out: IC50 values, nM (Mean ± SD, n = 2 or 3)
[2] = tested on: HL-60; experiment: CellTiter-Glo (CTG) cell proliferation experiment; assay type: cell-based; settings: Homo sapiens, TP53 Del, 72 hours, read-out: IC50 values, nM (Mean ± SD, n = 2 or 3)
[3] = tested on: SKM-1; experiment: CellTiter-Glo (CTG) cell proliferation experiment; assay type: cell-based; settings: Homo sapiens, TP53 mut, 72 hours, read-out: IC50 values, nM (Mean ± SD, n = 2 or 3)
[4] = tested on: MOLM-13 cells; experiment: Annexin V-FITC/PI apoptosis by flow cytometer; assay type: cell-based, human; settings: 48 hours
Description: The activation of P53 signaling pathway can induce apoptosis, cycle arrest, or senility of cells. […] Therefore, Annexin V-PI fluorescence probe and flow cytometer are used for analyzing the apoptosis of MOML-13 cells after being treated with compound 2 alone or in combination with Decitabine, Azacitidine or Cytarabine (Ara-C).

[5] = tested on: human OCI-AML-3 AML xenograft tumor; experiment: Subcutaneous OCI-AML-3 AML mouse xenograft tumor model; assay type: in vivo, NOD SCID mice; settings: Compound 2 50 mg/kg orally q2d, Azacitidine 2 mg/kg i.v., Decitabine 1 mg/kg i.v.
Experimental: For subcutaneous model, OCI-AML-3 cells (1×10^6) are injected subcutaneously into the right side of the abdomen of 6- to 8-week-old mice. About 10 days after the cell inoculation, the mice are randomly divided into groups based on the primary tumor size achieving about 100-150 mm^3 of average tumor volume.
(§1) The tumor diameter is measured twice using a vernier caliper each week. The computational formula of the tumor volume (TV) is: TV=a×b^2/2. In the computational formula, a and b represent the length and width of the tumor measurement respectively. The computational formula of the relative tumor volume (RTV) is: RTV=VtN1. In the computational formula, V1 is the tumor volume when being grouped and administered, and Vt is the tumor volume when being measured at a certain day after the administration.
The tumor remission rate (%) is derived by dividing the number of SD (Stable Disease), PR (Partial response) and CR (Complete response) appearing in the tumor bearing mice after treatment by the total number of mice in the group×100%.
The synergistic analysis uses the following formula (reference can be made to Gould S E et al., Translational value of mouse models in oncology drug development, Nature medicine, 2015 21, 431-439): synergistic factor=((A/C)×(B/C))/(AB/C); A=RTV value of the A drug alone group; B=RTV value of the B drug alone group; C=RTV value of the vehicle control group, AB=RTV value of the AB combined group (Clarke R., Issues in experimental design and endpoint analysis in the study of experimental cytotoxic agents in vivo in breast cancer and other models[J], Breast Cancer Research & Treatment, 1997, 46 (2-3):255-278).
For subcutaneous model, OCI-AML-3 cells (1×10^6) are injected subcutaneously into the right side of the abdomen of 6- to 8-week-old mice. About 10 days after the cell inoculation, the mice are randomly divided into groups based on the primary tumor size achieving about 100-150 mm^3 of average tumor volume. Compound 2 is administered alone or in combination (50 mg/kg, is taken orally, every other day for 15 days) and Aza (2 mg/kg, intravenous injection each day for 7 days) or Dec (1 mg/kg, intravenous injection each day for 7 days). The tumor volume is measured twice using a vernier caliper each week and is represented by following formula in mm^3: V=0.5a×b^2; in the formula, a and b are the long diameter and short diameter of the tumor respectively. […] RTV=VtN1; wherein V1 and Vt are the average tumor volume on the first day (day 1) in the treatment, and the average tumor volume of a certain time point (day t) respectively.
Azacitidine is administered following 2 mg/kg, caudal vein injection, qd×7d, drug withdrawal 7 days, then qd×2 day regimens for seven days (corresponding to the number 68 regimen in table 7).

[6] = tested on: human A375 cutaneous melanoma xenograft tumor; experiment: Subcutaneous A375 cutaneous melanoma xenograft model; assay type: in vivo, BALB/c Nude mice
Description: The subcutaneous xenograft tumor model of human tumor immuno-deficient mice is established by the cell inoculation method (reference can be made to Gould S E et al., Translational value of mouse models in oncology drug development, Nature medicine, 2015 21, 431-439, and Souers A J et al., ABT-199, a potent and selective BCL-2 inhibitor, achieves antitumor activity while sparing platelets, Nature medicine, 2012 19.202-208): tumor cells at logarithmic phase are collected, then are resuspended in 1×PBS after being counted, the concentration of the cell suspension is adjusted to 2.5-5×10^7/mL. Tumor cells are subcutaneously inoculated to right-side back of the immuno-deficient mice using a 1 mL syringe (4th needle) at 5-10×10^6/0.2 mL/mouse (experimental animals are purchased from Beijing Vital River Laboratory Animal Technology Co., Ltd. SCXK (Beijing) 2016-0006). All the experimental operations of animals strictly abide by the usage and management standard of experimental animals of GenePharma Co., Ltd. and Suzhou Yasheng Pharmaceutical Co., Ltd. The calculations of related parameters make reference to “Technical guidelines for non-clinical research of cytotoxic anti-tumor drugs” of China CFDA.
as §1
The evaluation index of the anti-tumor activity is the relative tumor proliferation rate T/C (%), and the computational formulae respectively are: the relative tumor proliferation rate T/C (%)=(TRTV/CRTV)×100%, TRTV is the RTV of the treatment groups, and CRTV is the RTV of the vehicle control groups. The tumor remission rate (%) is derived by dividing the number of SD (Stable Disease), PR (Partial response) and CR (Complete response) appearing in the tumor bearing mice after treatment by the total number of mice in the group×100%. […]

## CCN1[C@@H](C(=O)NC23CCC(C(=O)O)(CC2)CC3)[C@H](c2cccc(Cl)c2F)[C@]2(C(=O)Nc3cc(Cl)ccc32)C12CCCCC2 [Compound 2]
[1]
  IC50: 316 ± 97 nM
[2]
  IC50: 2560 ± 582 nM
[3]
  IC50: 8950 ± 570 nM
[4]; 40 nM
  MOLM-13 cells being apoptotic (Annexin V+ cells): about 31.0%
[4]; 110 nM
  MOLM-13 cells being apoptotic (Annexin V+ cells): ~55.1%
[4]; 1000 nM
  MOLM-13 cells being apoptotic (Annexin V+ cells): ~96.8%
[5]
  T/C value (%) (d15): 84.8%
[5]; d15, vehicle 16.5 ± 4.1
  Relative tumor volume (RTV, Mean ± SEM): 14.0 ± 2.7
[6]; Compound 2 50 mg/kg PO QD × 7D, Trametinib 1 mg/kg, Dabrafenib 30 mg/kg PO QD × 21D
  T/C (%) @ D18: 58.25%
[6]; Compound 2 50 mg/kg PO QD × 7D, Trametinib 1 mg/kg, Dabrafenib 30 mg/kg PO QD × 21D, vehicle 17.36 ± 1.33
  RTV @ D18 (Mean ± SEM): 10.11 ± 1.83
[6]; disease control rate, CR, PR or SD by mRECIST
  DCR (%): 0%
[6]; objective response rate, CR or PR by mRECIST
  ORR (%): 0%
